Data taken from patent publication US11420995B2, “Anti-infective and anti-inflammatory compounds” (Synovo GmbH, priority 2017, dated 2022).

What was measured:
Salmonella typhimurium = assay: Inhibition of growth of Salmonella typhimurium (optical density of culture); conditions: after 9-20 h, No compound 0.943
Description: (§1) Activity of substances in the inhibition of growth of bacteria. Bacteria including the species Escherichia coli, Bacillus pumilus, Salmonella sp., Micrococcus luteus and Staphylococcus carnosus are cultured in appropriate media (Luria broth for all except S. canosus). Overnight cultures are mixed with fresh medium to reach an optical density at 600 nM of ca. 0.1 AU. These cultures are mixed with solutions of substances to be tested at concentrations ranging from 100 μM to 0.05 μM in a microtitre plate. The growth of the culture is monitored by measuring the optical density at various times after the addition of the inhibitor. Reduction in the rate of increase in optical density corresponds to an inhibition of bacterial growth.

[1] = test system: Staphylococcus aureus Newman; assay: Staphylococcus infection in mice (body weight, CFU recovered from kidney); assay type: in vivo; conditions: for Ability of mice to clear an infection by Staphylococcus aureus Newman; bacteria quantified as CFU recovered from a standard sample of kidney: FIG. 6
[2] = test system: mice treated with dextran sulfate (colitis); assay: Dextran sulfate colitis in mice (inflammatory bowel disease model); assay type: in vivo, mouse (C57 BLK6 or BALBc); conditions: N=8; for Body weight and clinical score of BALBc mice at day 9 after commencing 2.5% DSS in water: FIG. 18
Source text: The potential efficacy of a Compound for Inflammatory bowel disease may be modeled as follows. C57 BLK6 or BALBc mice are provided with drinking water containing 2.5% or 2.8% dextran sulfate. Animals are weighed and observed for signs of intestinal disturbance daily. Signs include diarrhea or occult blood. Compound is formulated by mixing with a solution of 0.1 up to 1% citric acid depending on concentration. Compound is provided by oral gavage daily.

Staphylococcus carnosus = assay: Inhibition of growth of Staphylococcus carnosus (optical density of culture); conditions: after 9-20 h, No compound 0.887
Description: as §1

[3] = test system: Salmonella typhimurium phagocytosed by J774 murine cells; assay: Intracellular killing of S. Typhimurium by mouse macrophage cellline J 774 A.1 (surviving CFU); assay type: cell-based; conditions: FIG. 4; compared with azithromycin
Description: Substances may act directly on bacteria, or they may act to promote the killing of the bacteria by phagocytes. To measure this effect, cultures murine macrophages are incubated with a test bacteria and the number of bacteria surviving are counted in terms of the viable colony forming units (CFU). The method for determining the rate of phagocytosis is as follows:
Intracellular killing of S. Typhimurium by mouse macrophage cellline J 774 A.1 • seed a monolayer of cells in 200 μl Media into the wells of a 96 well plates • incubate O/N 37° C. • remove medium and add fresh medium • add Bacteria (Salmonella typhimurium) e.g. 5 μl of 1:100 diluted O/N culture (MOI=10) (=10^8 cfu/ml) • centrifuge 10 min 800 g (2000 rpm) • incubate 20-30 minutes at 37° C. (phagocytosis) • remove media • wash 1-2× with PBS • add medium with 100 μg/ml Gentamicin, stock: 10 mg/ml (=1:100) • incubate 45′ at 37° C. • wash 2× with PBS • add fresh medium (200 μl/well) • add compounds to test • incubate 2-3 hours at 37° C. • remove medium • lyse cells with water: add 200 μl H2O incubate 10′, push a few times through 27 gauge needle using a 1 ml syringe • plate […] 1:10 dilution onto LB-agar plates (=1:100 dil)
Overnight culture of Salmonella thyphimurium=˜[…]
Overnight culture of Staphylococcus carnosus=˜5×10^9 cfu/ml MOI=50 (=5 μl of 1:10 dil. O/N culture)
MOI=Multiplicity of Infection […]

Row | Compound | Absorbance of culture medium at 600 nm (Salmonella typhimurium; Conc. 0.8 μM) | Absorbance of culture medium at 600 nm (Salmonella typhimurium; Conc. 2 μM) | Absorbance of culture medium at 600 nm (Salmonella typhimurium; Conc. 3 μM) | Absorbance of culture medium at 600 nm (Salmonella typhimurium; Conc. 6 μM) | Absorbance of culture medium at 600 nm (Salmonella typhimurium; Conc. 13 μM) | Absorbance of culture medium at 600 nm (Salmonella typhimurium; Conc. 25 μM) | Absorbance of culture medium at 600 nm (Salmonella typhimurium; Conc. 50 μM) | Absorbance of culture medium at 600 nm (Salmonella typhimurium; Conc. 100 μM) | Ability of mice to clear an infection by Staphylococcus aureus Newman; bacteria quantified as CFU recovered from a standard sample of kidney [1] | Absorbance of culture medium at 600 nm (Staphylococcus carnosus; Conc. 0.8 μM) | Absorbance of culture medium at 600 nm (Staphylococcus carnosus; Conc. 2 μM) | Absorbance of culture medium at 600 nm (Staphylococcus carnosus; Conc. 3 μM) | Absorbance of culture medium at 600 nm (Staphylococcus carnosus; Conc. 6 μM) | Absorbance of culture medium at 600 nm (Staphylococcus carnosus; Conc. 13 μM) | Absorbance of culture medium at 600 nm (Staphylococcus carnosus; Conc. 25 μM) | Absorbance of culture medium at 600 nm (Staphylococcus carnosus; Conc. 50 μM) | Absorbance of culture medium at 600 nm (Staphylococcus carnosus; Conc. 100 μM) | Body weight and clinical score of BALBc mice at day 9 after commencing 2.5% DSS in water [2] | other results
1 | CC[C@H]1OC(=O)[C@H](C)[C@@H](O[C@H]2C[C@@](C)(OC)[C@@H](O)[C@H](C)O2)[C@H](C)[C@@H](O[C@@H]2O[C@H](C)CC(N(C)C)[C@H]2O[N+](=O)[O-])[C@](C)(O)C[C@@H](C)CN(C)[C@H](C)[C@@H](OC(C)=O)[C@]1(C)O (stereo partly shown) [Compound E-2] | 0.452 | 0.441 | 0.410 | 0.382 | 0.621 | 0.314 | 0.168 | 0.251 | decreases recovered bacteria in a dose responsive manner | 0.760 | 0.766 | 0815 | 0.626 | 0.542 | 0.456 | 0.425 | 0.395 |  | Body weight of BALBc mice at day 7 after commencing 2.5% DSS in water ([2]; FIG. 17): protects against weight loss; Killing of phagocytosed Salmonella typhimurium by murine macrophages [3]: stimulates the killing of bacterial cells by macrophages
2 | CC[C@H]1OC(=O)[C@H](C)[C@@H](O[C@H]2C[C@@](C)(OC)[C@@H](O)[C@H](C)O2)[C@H](C)[C@@H](O[C@@H]2O[C@H](C)CC(N(C)C)[C@H]2OC(C)=O)[C@](C)(O)C[C@@H](C)CN(C)[C@H](C)[C@@H](O[N+](=O)[O-])[C@]1(C)O (stereo partly shown) [Compound E-9] | 0.300 | 0.272 | 0.327 | 0.348 | 0.382 | 0.395 | 0.319 | 0.221 |  | 0.765 | 0.737 | 0.830 | 0.752 | 0.677 | 0.426 | 0.522 | 0.545 |  | 
3 | CCCCCCCCCCN(C)C1C[C@@H](C)O[C@@H](O[C@@H]2[C@@H](C)[C@H](O[C@H]3C[C@@](C)(OC)[C@@H](O)[C@H](C)O3)[C@@H](C)C(=O)O[C@H](CC)[C@@](C)(O)[C@H](O)[C@@H](C)N(C)C[C@H](C)C[C@@]2(C)O)[C@@H]1O (stereo partly shown) [Compound E-3] |  |  |  |  |  |  |  |  |  |  |  |  |  |  |  |  |  | stimulate inflammation | 
4 | CCCC(=O)O[C@@H]1C(N(C)C)C[C@@H](C)O[C@H]1O[C@@H]1[C@@H](C)[C@]2(O)O[C@@]1(C)C[C@@H](C)CN(C)[C@H](C)[C@@H](O)[C@](C)(O)[C@@H](CC)OC(=O)[C@@H]2C (stereo partly shown) [Compound E-238] |  |  |  |  |  |  |  |  |  |  |  |  |  |  |  |  |  | stimulate inflammation | 
5 | CC[C@H]1OC(=O)[C@H](C)[C@@H](O[C@H]2C[C@@](C)(OC)[C@@H](O)[C@H](C)O2)[C@H](C)[C@@H](O[C@@H]2O[C@H](C)C[C@H](N(C)C)[C@H]2O)[C@](C)(O)C[C@@H](C)CN(C)[C@H](C)[C@@H](O)[C@]1(C)O [Azithromycin, reference compound] |  |  |  |  |  |  |  |  | decreases recovered bacteria in a dose responsive manner |  |  |  |  |  |  |  |  |  | 
6 | CCCC(=O)O[C@@H]1[C@@H](C)N(C)C[C@H](C)C[C@@](C)(O)[C@H](O[C@@H]2O[C@H](C)CC(N(C)C)[C@H]2O)[C@@H](C)[C@H](O[C@H]2C[C@@](C)(OC)[C@@H](OC(=O)CCC)[C@H](C)O2)[C@@H](C)C(=O)O[C@H](CC)[C@@]1(C)O (stereo partly shown) [Compound E-553] |  |  |  |  |  |  |  |  |  |  |  |  |  |  |  |  |  | stimulate inflammation | 
7 | CCC(=O)O[C@@H]1[C@@H](C)N(C)C[C@H](C)C[C@@](C)(O)[C@H](O[C@@H]2O[C@H](C)C[C@H](N(C)C)[C@H]2O[N+](=O)[O-])[C@@H](C)[C@H](O[C@H]2C[C@@](C)(OC)[C@@H](O)[C@H](C)O2)[C@@H](C)C(=O)O[C@H](CC)[C@@]1(C)O [Compound E-5] | 0.574 | 0.568 | 0.511 | 0.478 | 0.437 | 0.396 | 0.395 | 0.390 | decreases recovered bacteria in a dose responsive manner | 0.819 | 0.726 | 0.805 | 0.525 | 0.452 | 0.403 | 0.347 | 0.302 |  | Response of mice to an infection by Staphylococcus (recovery of weight) ([1]; FIG. 5): faster recovery of weight due to faster clearance of bacteria
8 | CCC(=O)O[C@@H]1C(N(C)C)C[C@@H](C)O[C@H]1O[C@@H]1[C@@H](C)[C@H](O[C@H]2C[C@@](C)(OC)[C@@H](OC(=O)CC)[C@H](C)O2)[C@@H](C)C(=O)O[C@H](CC)[C@@](C)(O)[C@H](OC(=O)CC)[C@@H](C)N(C)C[C@H](C)C[C@@]1(C)OC(=O)CC (stereo partly shown) [Compound E-51] |  |  |  |  |  |  |  |  |  |  |  |  |  |  |  |  |  |  | Body weight and clinical score of BALBc mice at day 7 after commencing 2.5% DSS in water ([2]; FIG. 19, weight greater than Vehicle): protect against inflammation
